Data taken from PMC3454376, “Salidroside Improves Behavioral and Histological Outcomes and Reduces Apoptosis via PI3K/Akt Signaling after Experimental Traumatic Brain Injury” (PLoS ONE, 2012).

Key:
p-Akt Ser473 = assay: Western blot, injured cortex; assay type: in vivo, mice
Protocol: (§1) Mice were anesthetized and positioned in a stereotaxic frame. LY294002 (200 nM in 0.5 µL of saline) or equal amount of physiological saline was intracerebroventricularly (icv) injected at 30 min before CCI as previously described. A 1 mm cranial burr hole was drilled into the skull. A 30-gauge needle on a Hamilton syringe was implanted into the lateral ventricle using stereotactic coordinates: 1.5 mm posterior to bregma and 1.0 mm right lateral to the midline, 2 mm in depth. LY294002 or saline was infused into the brain at a rate of 0.05 µL/min over 10 min with an infusion pump (KDS 310, KD Scientific Inc., Holliston, MA, USA), and the needle was left in place for an additional 20 min to prevent reflux. After the needle was removed, CCI procedure was conducted immediately. Sham-operated mice were infused icv with saline, but were not subjected to CCI.
(§2) Three sets of experiments were performed. The first set was to investigate the protective effects of salidroside. All animals were randomized into 1 of 3 groups (sham injury, CCI + vehicle, CCI + SALD 20). Surgery/injury, behavioral testing, and tissue analyses were performed by different individuals. Behavioral testing and tissue analyses were performed by individuals blinded to the treatment group. Salidroside (Cayman Chemical, Ann Arbor, MI, USA) dissolved in normal saline (0.25 mL) or a corresponding volume of vehicle (saline) was administered intraperitoneally 10 min following injury. Testing after injury was completed as follows: 1) behavioral testing at days 1, 4, 7, 14, 21, and 28 (n = 8–10 mice/group); 2) cresyl violet staining at day 28 (n = 9 mice/group); 3) histology, determination of brain water content, and western blot analysis at day 1 or 3 (n = 5–6 mice/group). To determine the optimal dose of salidroside, a pilot study was performed using 2 different doses (20 and 50 mg/kg) administered 10 min after injury, and neurological deficits and tissue damage were evaluated as the main outcomes. […] The second set of experiment was to assess the effect of the inhibition of PI3K/Akt with the specific PI3K inhibitor, LY294002 (Cell Signaling Technology, Danvers, MA, USA), on salidroside effects. Animals were randomized into 4 groups. Mice received either: 1) icv pretreatment of LY294002 followed by SALD 20 after CCI (S20Y group); or 2) icv pretreatment of saline (vehicle control) followed by SALD 20 after CCI (S20V group). 3) Mice were infused icv with saline and were subjected to sham injury. 4) Mice were infused icv with LY294002 and were subjected to sham injury. Testing after injury was completed as follows: 1) cresyl violet staining at day 28 (n = 6 mice/group); 2) western blot analysis at day 1 (n = 6 mice/group). The third set of experiment was performed to examine the neuroprotective time window afforded by salidroside. Mice received intraperitoneal SALD 20 or vehicle (saline) at 3 or 6 h following CCI and were sacrificed 1 day later for FJB staining and western blot analysis (n = 6 mice/group).
(§3) Brains of injured or sham animals were collected 1 day and 3 days post CCI or sham surgery, and a 4 mm coronal section from the injured area over the parietal cortex and ipsilateral hippocampus were collected. The protein samples were obtained from tissue homogenates in 300 µL of ice-cold reagent (T-PER reagent; Pierce Biotechnology, Rockford, IL, USA) with a complete mini protease inhibitor cocktail (Roche Molecular Biochemicals) centrifuged at 14000g for 30 min. Protein concentration was determined by Bradford reagent spectrophotometrically at A595. Equal amounts of protein samples were denatured in gel-loading buffer at 100°C for 5 min, and then loaded onto sodium dodecyl sulfate-polyacrylamide gels to be separated. Separated proteins were transferred to Immobilon-P membranes (Millipore, Billerica, MA, USA), blocked with the use of 5% milk in PBST and probed with primary antibodies. […]

p-Bad = assay: Western blot, injured cortex; assay type: in vivo, mice
Protocol: as §1, §2, §3

p-Akt Thr308 = assay: Western blot, injured cortex; assay type: in vivo, mice; conditions: icv LY294002 30 min before CCI + SALD 20 mg/kg ip (S20LY); day 1; P<0.05
Protocol: as §1, §2, §3

p-FOXO1 = assay: Western blot, injured cortex; assay type: in vivo, mice
Protocol: as §1, §2, §3

[1] = system: mice subjected to controlled cortical impact injury; assay: Residual cerebral tissue ratio, cresyl violet staining; assay type: in vivo; conditions: icv LY294002 30 min before CCI, then SALD 20 mg/kg ip (S20LY group); day 28; P<0.05 vs S20S
Protocol: All animal procedures were approved by the Animal Research Committee at Cheng Hsin General Hospital (Animal permit number CHIACUC 101–08), and all procedures complied with the Guide for the Care and Use of Laboratory Animals published by the US National Institutes of Health (NIH Publication No. 85–23, revised 1996). Animals were housed under a 12-h light/dark cycle and at constant temperature (21–25°C) and humidity (45–50%). They were allowed free access to pellet chow and water. TBI in mice was induced by a CCI injury model as previously described. Briefly, 8-week-old male C57BL/6 mice (weighing 22–25 g) were anesthetized through the use of intraperitoneal injection of sodium pentobarbital (65 mg/kg; Rhone Merieux, Harlow, UK) and placed in a stereotaxic frame. A 5 mm craniotomy was performed over the right parietal cortex, centered on the coronal suture and 0.1 mm lateral to the sagittal suture, and injury to dura was avoided. Injury was induced using a pneumatic piston with a rounded metal tip (2.5 mm diameter) that was angled 22.5° to the vertical so that the tip was perpendicular with the brain surface at the center of the craniotomy. The impact, with a velocity of […] and a deformation depth of 2 mm below the dura, was applied. The bone flap was immediately replaced and sealed, and the scalp was sutured. Body temperature was monitored throughout the surgery by a rectal probe; temperature was maintained at 37.0±0.5°C using a heated pad. Mice were placed in a heated cage to maintain body temperature, while recovering from anesthesia. Sham-operated mice underwent the same procedure as injured mice, but without CCI.
as §1
Three sets of experiments were performed. […] To determine the optimal dose of salidroside, a pilot study was performed using 2 different doses (20 and 50 mg/kg) administered 10 min after injury, and neurological deficits and tissue damage were evaluated as the main outcomes. […]

[2] = icv LY294002 30 min before CCI + SALD 20 mg/kg ip, day 1, P>0.05

## O=c1cc(N2CCOCC2)oc2c(-c3ccccc3)cccc12 [LY294002, reference compound]
p-Akt Ser473; [2]
  p-Akt Ser473 level, S20LY versus S20V group: similar
p-Akt Ser473; icv LY294002, sham injury
  Akt phosphorylation (Ser473 and Thr308) in sham-operated mice: did not affect
p-Bad; [2]
  p-Bad level, S20LY versus S20V group: similar
p-Bad; icv LY294002, sham injury
  Bad phosphorylation in sham-operated mice: did not affect
p-Akt Thr308
  p-Akt Thr308 level, % of the S20V level: 58.1%
p-FOXO1; icv LY294002 30 min before CCI + SALD 20 mg/kg ip (S20LY), day 1, P<0.05
  p-FOXO1 level, % of the S20V level: 41.6%
p-FOXO1; icv LY294002, sham injury
  FOXO1 phosphorylation in sham-operated mice: did not affect
[1]
  residual cerebral tissue ratio: 71.0±6.3%
